From publication PMC10439028, “SGLT5 is the renal transporter for 1,5-anhydroglucitol, a major player in two rare forms of neutropenia” (Cellular and Molecular Life Sciences: CMLS, 2023)

Molecular target: T1, hSGLT5 Asn96Ile (Homo sapiens, UniProt A0PJK1, N96I)
T1 construct: pUB83-hSGLT5-iso2 as well as the various SGLT5 mutants obtained were used to transduce HEK293T cells; expressed in transfected cells; host or cells: HEK293T, lentiviral transduction (pUB83)
T1 sequence (A0PJK1 1-596 N96I): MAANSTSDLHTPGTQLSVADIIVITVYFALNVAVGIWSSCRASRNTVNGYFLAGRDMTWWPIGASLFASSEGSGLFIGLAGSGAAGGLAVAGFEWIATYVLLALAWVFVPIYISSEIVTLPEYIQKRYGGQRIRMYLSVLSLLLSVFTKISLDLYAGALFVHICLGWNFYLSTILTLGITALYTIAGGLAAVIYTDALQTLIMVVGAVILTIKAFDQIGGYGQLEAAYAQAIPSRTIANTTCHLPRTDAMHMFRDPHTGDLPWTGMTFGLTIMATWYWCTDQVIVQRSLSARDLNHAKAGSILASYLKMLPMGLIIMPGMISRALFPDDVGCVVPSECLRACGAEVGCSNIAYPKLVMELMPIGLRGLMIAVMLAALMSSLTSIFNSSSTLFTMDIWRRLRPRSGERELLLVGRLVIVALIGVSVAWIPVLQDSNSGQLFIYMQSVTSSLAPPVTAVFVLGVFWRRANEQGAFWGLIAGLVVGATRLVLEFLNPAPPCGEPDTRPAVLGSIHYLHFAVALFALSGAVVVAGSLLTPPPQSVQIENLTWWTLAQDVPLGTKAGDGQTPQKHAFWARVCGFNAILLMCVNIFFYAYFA
Experiment: 1,5-AG uptake in HEK293T cells overexpressing SGLT5 variant Asn96Ile
Assay type: cell-based
Protocol: For a typical transporter experiment we proceeded as follows. […] To minimize cell loss during the various washing steps in the radioactive uptake experiments, the wells where the cells were seeded were previously coated with poly- D-lysine, which improved their adhesion to the plastic surface of the wells. For this, each well of the 24-well plates was treated with 200 µl of a 0.01% poly-L-lysine solution for 10 min, washed 3 times with 1 ml of sterilized water and left to dry for 2 h. Only then could the 24-well plates be seeded with the appropriate cell lines and cultured overnight at 37 °C in 5% CO2.
On day two, the radioactive uptake assay could be performed. The cell culture media was removed by aspiration and cells were incubated for 20 min at 37 °C and 5% CO2 with a basal medium (10 mM HEPES, pH 7.4, 1 mM CaCl2, 1 mM MgCl2, 2 mM KCl) containing 140 mM choline chloride to deplete intracellular Na^2+ ions. […]
Once the uptake medium was added to the cells, the plates were incubated at 37 °C in 5% CO2 during the required time. […] In each experiment, the transport activities were calculated after subtracting a “blank” value, corresponding to the radioactivity in the appropriate control cells (HEK293T cells that were stably or transiently transfected with one of the parent plasmids pEF6/MycHisA, pEF6HisB, pUB82 or pUB83 with no inserted cDNA) that were analyzed in parallel. […]

Question: Which results are given for `OC[C@H]1OC[C@H](O)[C@@H](O)[C@@H]1O` [1,5-AG, 1,5-anhydroglucitol]?
Answer: Vmax: 19.5 ± 3 pmol/min/10^5cells; reduction of transport efficiency compared to SGLT5: sixfold
